{"source": "patent US20240358717A1", "about": "“APPLICATION OF B-ECDYSTERONE IN PREPARATION OF MEDICINE FOR URIC ACID-LOWERING AND HYPERURICEMIC KIDNEY INJURY” (Institute of Chinese Materia Medica, China Academy of …, priority 2023, published 2024)", "assay_type_in_all_cases": "in vivo, SD rats", "key": {"rats with hyperuricemia [1]": {"tested_on": "rats with hyperuricemia", "test": "Urate deposition in rat kidney tissues (hexamine silver staining)", "procedure": "(§1) The establishment of the model as well as the experimental grouping and administration were the same as in Example 1. 1.2 Pathological examination of kidney tissue: anesthetize rats, dissect, and remove kidney tissue. The kidney tissues were fixed with 10% neutral formalin. After sufficient fixation, sampling, gradient dehydration, xylene transparency, paraffin embedding, and preparation of 3 μm paraffin sections were performed according to routine procedures. The kidney tissue lesions as well as urate deposition in the kidney tissues were examined by light microscopy using, HE (hematoxylin & eosin) staining and hexamine silver staining, respectively. […] Among them, A in FIG. 1 and FIG. 2 is the control group, B is the model group, C and D are both β-ecdysterone underdose group, E is β-ecdysterone low dose group, F is β-ecdysterone medium dose group, G is β-ecdysterone high dose group, H is β-ecdysterone overdose group, I is allopurinol group, and J is benzbromarone group. The length unit in the lower right corner of the figure is 50 μm."}, "rats with hyperuricemia [2]": {"tested_on": "rats with hyperuricemia", "test": "Pathological examination of rat kidney tissue (HE staining)", "details": "for pathology of kidney tissues: HE staining; for protective effect on kidney injury combined with hyperuricemia: overall conclusion from hexamine silver staining, biochemical and pathological results", "procedure": "as §1"}, "rats with hyperuricemia [3]": {"tested_on": "rats with hyperuricemia", "test": "Effect on blood uric acid level in rats with hyperuricemia (adenine combined with ethambutol model)", "details": "for Blood uric acid: serum, 16 h fasting after last administration, mean±SD; for Uric acid reduction Percentage: versus model group", "procedure": "There were 80 Male SPF grade SD rats, weighing 200-220 g, were purchased from Beijing Vital River Laboratory Animal Technology Co., Ltd., license No. SCXK (Beijing) 2016-0006. The animals were housed in a barrier environment animal laboratory, with automatic temperature control (temperature 20-26° C.), relative humidity 40-70%, and full fresh air. Artificial light was adopted with a 12-hour light-dark cycle. Group experiments were started after 1 day of acclimatization. Animals were fed with standard rat pellet feed, provided by Beijing Keao Xieli Feed Co. Ltd., with purified water.\nThe rats were randomly divided into 10 groups of 8 rats each:\n(1) negative control group (control group); (2) model group; (3) β-ecdysterone underdose group-1, 6 mg/kg; (4) β-ecdysterone underdose group-2, 12 mg/kg; (5) β-ecdysterone low dose group 25 mg/kg; (6) β-ecdysterone medium dose group 50 mg/kg; (7) β-ecdysterone high dose group 100 mg/kg; (8) β-ecdysterone overdose group 200 mg/kg; (9) allopurinol group 25 mg/kg; (10) benzbromarone group 25 mg/kg.\n1.2 Establishment of Adenine Combined with Ethambutol-Induced Hyperuricemia Combined with Kidney Injury Model in Rats\nAdenine was purchased from Sigma-Aldrich (USA), and 0.5% CMC-Na (sodium carboxymethyl cellulose) solution was used to formulate a suspension at a concentration of 20 mg/mL, ready-to-use, with an administration volume of 5 mL/kg and a dosage of 100 mg/kg. Ethambutol hydrochloride tablets were purchased from Chengdu Jinhua Pharmaceutical Co., Ltd, and 0.5% CMC-Na solution was used to formulate a suspension at a concentration of 50 mg/ml, ready-to-use, with an administration volume of 5 mL/kg and a dosage of 250 mg/kg. The modeling drug adenine 100 mg/kg and ethambutol 250 mg/kg were administered by gavage in the model group and the CQ group at each dose, from day 1, and both were administered once a day for a total of 7 days, to prepare a hyperuricemia rat model. An equal amount of 0.5% CMC-Na solution was administered by gavage in the control group at the relative time.\nObservation and detection indicators: fasting for 16 hours after the last administration, blood was collected from the abdominal aorta of rats in each group, centrifuged at 3500 rpm for 15 minutes after standing, separated and collected serum, and the content of uric acid in the serum was measured using an Automatic Chemical Analysis.\nStatistical methods: data were expressed as mean±standard deviation and analyzed by one-way ANOVA. Each administration group was compared with the model group separately."}, "rats with hyperuricemia [4]": {"tested_on": "rats with hyperuricemia", "test": "Kidney function biochemical indicators (serum BUN and SCr) in rats with hyperuricemia", "details": "for BUN / SCr: serum, mean±SD", "excerpt": "The establishment of the model as well as the experimental grouping and administration were the same as in Example 1.\n1.1 Kidney function biochemical indicators detection: the method of blood sampling and serum collection was the same as in Example 1, and an Automatic Chemical Analysis was used to detect the content of serum creatinine (SCr) by using the creatine oxidase method, and to detect the content of blood urea nitrogen (BUN) by using the urease method and the kinetic method. the effect of β-ecdysterone on the level of blood BUN and SCr of rats with hyperuricemia is shown in Table 2."}}, "data": [{"smiles": "CC(C)(O)CC[C@@H](O)[C@](C)(O)[C@H]1CC[C@@]2(O)C3=CC(=O)[C@@H]4C[C@@H](O)[C@@H](O)C[C@]4(C)[C@H]3CC[C@]12C", "note": "[β-ecdysterone]", "values": [{"measurement": "urate crystals deposition in kidney tissue", "setting": "rats with hyperuricemia [1]; 50 mg/kg group", "value": "most obvious effect"}, {"measurement": "urate crystals deposition in kidney tissue", "setting": "rats with hyperuricemia [1]; after administration, versus model group", "value": "significantly reduced"}, {"measurement": "urate crystals deposition in kidney tissue", "setting": "rats with hyperuricemia [1]; lower dose", "value": "no significant reduction"}, {"measurement": "pathology of kidney tissues", "setting": "rats with hyperuricemia [2]; 25 mg/kg", "value": "tubular dilatation was reduced compared with that of the model group"}, {"measurement": "pathology of kidney tissues", "setting": "rats with hyperuricemia [2]; high dose group 100 mg/kg", "value": "tubular dilatation was reduced compared with that of the model group"}, {"measurement": "pathology of kidney tissues", "setting": "rats with hyperuricemia [2]; medium dose group 50 mg/kg", "value": "tubular dilatation was significantly reduced"}, {"measurement": "protective effect on kidney injury combined with hyperuricemia", "setting": "rats with hyperuricemia [2]", "value": "significant protective effect"}, {"measurement": "pathology of kidney tissues", "setting": "rats with hyperuricemia [2]; overdose group 200 mg/kg", "value": "mild tubular dilatation and tubular epithelial cell detachment, and tubular wall thinning in some of the tubules were observed locally"}, {"measurement": "pathology of kidney tissues", "setting": "rats with hyperuricemia [2]; underdose group (6 and 12 mg/kg)", "value": "severe tubular expansion, epithelial cell detachment, eosinophilic degeneration and inflammatory cell infiltration could still be observed"}, {"measurement": "Blood uric acid", "setting": "rats with hyperuricemia [3]; 6 mg/kg", "value": "154.76 ± 38.71", "unit": "µmol/L"}, {"measurement": "Uric acid reduction Percentage", "setting": "rats with hyperuricemia [3]; 6 mg/kg", "value": 4.98, "unit": "%"}, {"measurement": "Blood uric acid", "setting": "rats with hyperuricemia [3]; 12 mg/kg", "value": "147.55 ± 39.28", "unit": "µmol/L"}, {"measurement": "Uric acid reduction Percentage", "setting": "rats with hyperuricemia [3]; 12 mg/kg", "value": 10.10, "unit": "%"}, {"measurement": "Blood uric acid", "setting": "rats with hyperuricemia [3]; 25 mg/kg", "value": "117.91 ± 43.74", "unit": "µmol/L"}, {"measurement": "Uric acid reduction Percentage", "setting": "rats with hyperuricemia [3]; 25 mg/kg", "value": 37.78, "unit": "%"}, {"measurement": "Blood uric acid", "setting": "rats with hyperuricemia [3]; 50 mg/kg", "value": "110.83 ± 25.02", "unit": "µmol/L"}, {"measurement": "Uric acid reduction Percentage", "setting": "rats with hyperuricemia [3]; 50 mg/kg", "value": 46.58, "unit": "%"}, {"measurement": "Blood uric acid", "setting": "rats with hyperuricemia [3]; 100 mg/kg", "value": "120.19 ± 68.99", "unit": "µmol/L"}, {"measurement": "Uric acid reduction Percentage", "setting": "rats with hyperuricemia [3]; 100 mg/kg", "value": 35.17, "unit": "%"}, {"measurement": "Blood uric acid", "setting": "rats with hyperuricemia [3]; 200 mg/kg", "value": "127.56 ± 61.77", "unit": "µmol/L"}, {"measurement": "Uric acid reduction Percentage", "setting": "rats with hyperuricemia [3]; 200 mg/kg", "value": 27.36, "unit": "%"}, {"measurement": "blood uric acid level compared to the model group", "setting": "rats with hyperuricemia [3]; dose too low (underdose groups)", "value": "not significantly reduced"}, {"measurement": "BUN", "setting": "rats with hyperuricemia [4]; 6 mg/kg", "value": "11.34 ± 4.11", "unit": "mmol/L"}, {"measurement": "SCr", "setting": "rats with hyperuricemia [4]; 6 mg/kg", "value": "51.72 ± 7.35", "unit": "µmol/L"}, {"measurement": "BUN", "setting": "rats with hyperuricemia [4]; 12 mg/kg", "value": "9.81 ± 3.76", "unit": "mmol/L"}, {"measurement": "SCr", "setting": "rats with hyperuricemia [4]; 12 mg/kg", "value": "47.56 ± 6.11", "unit": "µmol/L"}, {"measurement": "BUN", "setting": "rats with hyperuricemia [4]; 25 mg/kg", "value": "7.36 ± 1.71", "unit": "mmol/L"}, {"measurement": "SCr", "setting": "rats with hyperuricemia [4]; 25 mg/kg", "value": "40.73 ± 5.79", "unit": "µmol/L"}, {"measurement": "BUN", "setting": "rats with hyperuricemia [4]; 50 mg/kg", "value": "7.19 ± 1.00", "unit": "mmol/L"}, {"measurement": "SCr", "setting": "rats with hyperuricemia [4]; 50 mg/kg", "value": "41.30 ± 4.08", "unit": "µmol/L"}, {"measurement": "BUN", "setting": "rats with hyperuricemia [4]; 100 mg/kg", "value": "7.84 ± 2.04", "unit": "mmol/L"}, {"measurement": "SCr", "setting": "rats with hyperuricemia [4]; 100 mg/kg", "value": "42.15 ± 5.01", "unit": "µmol/L"}, {"measurement": "BUN", "setting": "rats with hyperuricemia [4]; 200 mg/kg", "value": "8.04 ± 3.96", "unit": "mmol/L"}, {"measurement": "SCr", "setting": "rats with hyperuricemia [4]; 200 mg/kg", "value": "44.30 ± 5.21", "unit": "µmol/L"}, {"measurement": "serum BUN level compared with the model group", "setting": "rats with hyperuricemia [4]; after administration (p<0.01)", "value": "significantly reduced"}, {"measurement": "serum SCr level compared with the model group", "setting": "rats with hyperuricemia [4]; after administration (p<0.01)", "value": "significantly reduced"}, {"measurement": "serum BUN level compared with the model group", "setting": "rats with hyperuricemia [4]; dose too high", "value": "only a slight decreasing trend"}, {"measurement": "serum SCr level compared with the model group", "setting": "rats with hyperuricemia [4]; dose too high", "value": "only a slight decreasing trend"}, {"measurement": "serum BUN level compared with the model group", "setting": "rats with hyperuricemia [4]; dose too low", "value": "no significant difference"}, {"measurement": "serum SCr level compared with the model group", "setting": "rats with hyperuricemia [4]; dose too low", "value": "no significant difference"}]}, {"smiles": "CCc1oc2ccccc2c1C(=O)c1cc(Br)c(O)c(Br)c1", "note": "[Benzbromarone, benzbromarone, reference compound]", "values": [{"measurement": "urate crystals deposition in kidney tissue", "setting": "rats with hyperuricemia [1]; positive drugs, 25 mg/kg", "value": "significantly reduced"}, {"measurement": "pathology of kidney tissues", "setting": "rats with hyperuricemia [2]; 25 mg/kg", "value": "severe renal tubules dilatation, tubular wall thinning, eosinophilic degeneration, and inflammatory cell infiltration were observed"}, {"measurement": "protective effect on kidney injury combined with hyperuricemia", "setting": "rats with hyperuricemia [2]", "value": "did not have a significant protective effect"}, {"measurement": "Blood uric acid", "setting": "rats with hyperuricemia [3]; 25 mg/kg", "value": "112.53 ± 30.78", "unit": "µmol/L"}, {"measurement": "Uric acid reduction Percentage", "setting": "rats with hyperuricemia [3]; 25 mg/kg", "value": 44.37, "unit": "%"}, {"measurement": "BUN", "setting": "rats with hyperuricemia [4]; 25 mg/kg", "value": "10.91 ± 2.66", "unit": "mmol/L"}, {"measurement": "SCr", "setting": "rats with hyperuricemia [4]; 25 mg/kg", "value": "50.64 ± 7.92", "unit": "µmol/L"}, {"measurement": "serum BUN level compared with the model group", "setting": "rats with hyperuricemia [4]; positive drugs, 25 mg/kg", "value": "did not show significant differences"}, {"measurement": "serum SCr level compared with the model group", "setting": "rats with hyperuricemia [4]; positive drugs, 25 mg/kg", "value": "did not show significant differences"}]}, {"smiles": "Oc1ncnc2[nH]ncc12", "note": "[Allopurinol, allopurinol, reference compound]", "values": [{"measurement": "urate crystals deposition in kidney tissue", "setting": "rats with hyperuricemia [1]; positive drugs, 25 mg/kg", "value": "significantly reduced"}, {"measurement": "pathology of kidney tissues", "setting": "rats with hyperuricemia [2]; 25 mg/kg", "value": "severe renal tubules dilatation, tubular wall thinning, eosinophilic degeneration, and inflammatory cell infiltration were observed"}, {"measurement": "protective effect on kidney injury combined with hyperuricemia", "setting": "rats with hyperuricemia [2]", "value": "did not have a significant protective effect"}, {"measurement": "Blood uric acid", "setting": "rats with hyperuricemia [3]; 25 mg/kg", "value": "109.11 ± 21.66", "unit": "µmol/L"}, {"measurement": "Uric acid reduction Percentage", "setting": "rats with hyperuricemia [3]; 25 mg/kg", "value": 48.90, "unit": "%"}, {"measurement": "BUN", "setting": "rats with hyperuricemia [4]; 25 mg/kg", "value": "12.17 ± 3.03", "unit": "mmol/L"}, {"measurement": "SCr", "setting": "rats with hyperuricemia [4]; 25 mg/kg", "value": "48.16 ± 6.95", "unit": "µmol/L"}, {"measurement": "serum BUN level compared with the model group", "setting": "rats with hyperuricemia [4]; positive drugs, 25 mg/kg", "value": "did not show significant differences"}, {"measurement": "serum SCr level compared with the model group", "setting": "rats with hyperuricemia [4]; positive drugs, 25 mg/kg", "value": "did not show significant differences"}]}]}
